Reference: patent publication EP4527906A1, “OXIDATION RESISTANT COMPOSITIONS OF DINAHYDROHEXITOLS CONTAINING BENZOPHENONE OR ITS DERIVATIVES” (ROQUETTE FRERES, priority 2023, dated 2025)

How the values were obtained:
Type in all cases: physicochemical
[1] = Thermal treatment test: yellow coloration index after heating; details: for Yellow coloration index After-Before: difference after minus before thermal test, 100 ppm antioxidant; for Yellow coloration index after thermal test: isosorbide solution with 100 ppm antioxidant, 245°C for 40 minutes under nitrogen
Procedure: (§1) The yellow coloration index, expressed in YID units, was measured using a Colorflex EZ from Hunterlab according to ASTM E313. The spectrophotometer is a sealed optics, 256-elements diode array, having a 400-700 nm spectral range and a high-resolution concave holographic grating. 55 grams of composition are placed at 65°C, in a 64 mm diameter cylindric cell including a ring and white disk cap. The coloration of the composition was measured as a liquid at 65°C.
(§2) The method hereafter is described for isosorbide as the chemical compound having at least one heterocycle, and is also applicable to any chemical compound having at least one heterocycle.
The thermal stability of compositions of isosorbide, was studied according to the following protocol: 70 g of a 80 wt% solution of isosorbide in water was placed in a three-necked round flask and inerted with high purity nitrogen (purity >99.9%) during 10 minutes at a flowrate of around 2000 mL/min. The product was then heated at 245°C using an oil bath for 40 minutes under a 500 mL/min nitrogen flowrate. Then the product was cooled down to 80°C under the same nitrogen flowrate and yellow coloration measurement (YID value) was measured immediately.
Coloration before and after "thermal treatment" as well as their difference is related to the product thermal stability, i.e. to the sensitivity of the product to oxidation.

[2] = PetroOxy test: induction time (resistance to oxidation)
Text: The resistance of compositions according to the invention to oxidation may indeed be characterized by this measurement called the "PetroOxy test" which consists in measuring over time the pressure inside a cell loaded with a sample of composition exposed to an initial pressure of dioxygen and a constant temperature. The protocol of this test is described below after.
as §2
3 grams of a purified 50 wt% dry matter isosorbide solution in distilled water with or without the addition of antioxidant are weighed precisely in a glass cup and then placed in the hermetic enclosure of the measuring device "PetroOxy" model 13-3002 from Petrotest, now Anton Paar GmbH. The air present in the cell is purged 3 times at room temperature with pure oxygen via a pressurized cylinder (Alphagas, purity >99.5%). The temperature and working pressure of pure oxygen is then set at 120°C and 700 kPa (7 bars) of oxygen. The pressure is continuously monitored during the experiment. The decrease in pressure in the test chamber is due to oxygen consumption during oxidation reactions of the sample studied. The variation in relative pressure during the experiment makes it possible to determine the time after which the sample begins its degradation by oxidation, which is called induction time, also referred as "OIT", under the test conditions.
The induction time of the sample is determined as follows:
The relative pressure of oxygen consumption is given by the relation (Pmax -Pt)/Pmax. Pmax is the maximum pressure attained by the system during the measurement, corresponding to the maximum pressure at the beginning of time, and Pt is the pressure as a function of time when oxygen is consumed. The induction time of the sample is given by the inflection point of the oxygen consumption curve, i.e. the intersection of the two linear domains as shown on figure Fig.1.
The longer the induction time, the greater the oxidation resistance of the sample. To calculate precisely this parameter, a calculation method by linear regression between the two-line segments before and after the inflection point is performed.

[3] = Yellow coloration index measurement (ASTM E313), before thermal treatment; details: isosorbide solution with 100 ppm antioxidant, measured as a liquid at 65°C
Procedure: as §1

[4] = isosorbide aqueous solution with 100 ppm antioxidant, 120°C and 7 bars of oxygen
[5] = listed as 4,4'-dihydroxy-benzophenone

Structure (SMILES) | Yellow coloration index After-Before [1] | Yellow coloration index after thermal test [1] | Induction time [2, 4] | Yellow coloration index before thermal test [3] | Yellow coloration index after thermal test [1, 5] | Yellow coloration index before thermal test [3, 5] | Yellow coloration index after thermal test ([1]; listed as 2-hydroxy-4-methoxy-benzophenone) | Induction time (hours) ([2]; isosorbide aqueous solution with 100 ppm antioxidant, 120°C and 7 bars of oxygen, listed as 2-hydroxy-4-methoxy benzophenone) | Yellow coloration index after thermal test ([1]; listed as benzophenone) | % versus no antioxidant ([2]; change of induction time versus isosorbide solution without antioxidant (3.5 h), 100 ppm antioxidant)
O=C(c1ccccc1)c1ccccc1 [Sample 2.1, Benzophenone] | 6.4 YID | 7.7 YID | 3.8 h | 1.3 YID |  |  |  |  | lower than 10 YID | about 9%
O=C(c1ccc(O)cc1)c1ccc(O)cc1 [Sample 2.2, 4,4'-dihydroxy-benzophenone] | 5.1 YID | 9.3 YID | 3.9 h | 4.2 YID | lower than 10 YID | lower than 10 YID |  |  |  | 
COc1ccc(C(=O)c2ccccc2)c(O)c1 [Sample 2.3, 2-hydroxy-4-methoxybenzophenone] | 3.9 YID | 6.1 YID | 4.6 h | 2.2 YID |  |  | below 7 YID | around 4,6 hours |  | 

Further lines, with some results ahead:

Yellow coloration index After-Before [1] | Yellow coloration index after thermal test [1] | Induction time [2, 4] | Yellow coloration index before thermal test [3] | Yellow coloration index after thermal test [1, 5] | Yellow coloration index before thermal test [3, 5] | Yellow coloration index after thermal test ([1]; listed as 2-hydroxy-4-methoxy-benzophenone) | Induction time (hours) ([2]; isosorbide aqueous solution with 100 ppm antioxidant, 120°C and 7 bars of oxygen, listed as 2-hydroxy-4-methoxy benzophenone) | Structure (SMILES) | Yellow coloration index after thermal test ([1]; listed as benzophenone) | % versus no antioxidant ([2]; change of induction time versus isosorbide solution without antioxidant (3.5 h), 100 ppm antioxidant)
37 YID | 49.3 YID | 5.2 h | 12.3 YID |  |  |  |  | COc1ccc(C(=O)c2ccccc2O)c(O)c1 [Sample 2.4, 2,2'-dihydroxy-4-methoxybenzophenone] |  | 
5.2 YID | 14.3 YID |  | 9.1 YID |  |  |  |  | CCCOC(=O)c1cc(O)c(O)c(O)c1 [Sample 3, Propyl gallate, reference compound] |  | 
